Results from patent US20120116095A1, “GLYCINE TRANSPORTER INHIBITORS” (TAISHO PHARMACEUTICAL C0., LTD., priority 2009, published 2012).

What was measured:
[1] = biological target: T1, P-glycoprotein (P-gp) (Homo sapiens, UniProt P08183); assay: Test for substrate recognition by P-gp (LLC-GA5-COL300 cells); type: in vitro ADME; conditions: 10 μM, Human MDR1-expressing LLC-GA5-COL300 cells, Apical to Basolateral and Basolateral to Apical
T1 construct: expressed in transfected cells; host or cells: LLC-GA5-COL300 (pig kidney LLC-PK1 cells expressing human MDR1)
T1 sequence (P08183 whole entry): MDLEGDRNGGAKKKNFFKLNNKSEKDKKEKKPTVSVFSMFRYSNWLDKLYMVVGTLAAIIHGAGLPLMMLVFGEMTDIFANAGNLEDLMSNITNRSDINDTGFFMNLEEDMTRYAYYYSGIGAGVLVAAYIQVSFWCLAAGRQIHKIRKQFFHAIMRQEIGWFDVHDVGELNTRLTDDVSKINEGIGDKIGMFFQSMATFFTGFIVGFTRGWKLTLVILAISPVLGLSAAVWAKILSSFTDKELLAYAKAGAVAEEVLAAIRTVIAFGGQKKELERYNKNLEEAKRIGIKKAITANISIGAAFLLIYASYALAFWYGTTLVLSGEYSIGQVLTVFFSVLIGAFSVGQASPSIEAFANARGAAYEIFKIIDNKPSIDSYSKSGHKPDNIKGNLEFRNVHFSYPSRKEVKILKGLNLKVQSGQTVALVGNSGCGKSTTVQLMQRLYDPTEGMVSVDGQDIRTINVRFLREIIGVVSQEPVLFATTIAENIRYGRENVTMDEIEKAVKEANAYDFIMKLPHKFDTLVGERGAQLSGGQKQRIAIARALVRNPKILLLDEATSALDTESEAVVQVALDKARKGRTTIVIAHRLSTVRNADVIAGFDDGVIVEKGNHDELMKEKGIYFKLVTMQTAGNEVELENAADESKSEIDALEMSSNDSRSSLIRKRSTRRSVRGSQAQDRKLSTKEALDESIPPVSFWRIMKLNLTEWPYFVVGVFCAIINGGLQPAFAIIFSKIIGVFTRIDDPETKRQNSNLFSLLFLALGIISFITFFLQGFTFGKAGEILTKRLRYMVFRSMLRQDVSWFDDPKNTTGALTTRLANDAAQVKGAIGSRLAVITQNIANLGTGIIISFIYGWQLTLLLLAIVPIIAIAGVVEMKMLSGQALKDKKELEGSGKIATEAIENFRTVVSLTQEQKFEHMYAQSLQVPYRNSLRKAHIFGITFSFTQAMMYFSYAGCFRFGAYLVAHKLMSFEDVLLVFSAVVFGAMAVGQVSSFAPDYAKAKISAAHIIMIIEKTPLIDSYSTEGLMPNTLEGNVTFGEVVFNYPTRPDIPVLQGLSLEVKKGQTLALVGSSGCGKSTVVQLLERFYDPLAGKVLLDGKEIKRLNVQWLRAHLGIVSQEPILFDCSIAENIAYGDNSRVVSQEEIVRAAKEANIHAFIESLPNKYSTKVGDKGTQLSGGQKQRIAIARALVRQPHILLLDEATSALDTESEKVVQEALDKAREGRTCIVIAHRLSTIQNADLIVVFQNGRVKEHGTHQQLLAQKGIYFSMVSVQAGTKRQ
From the text: In the case of drugs that act on the central nervous system, it is generally important for such drugs to be transferred from blood into brain for development of their efficacy. In the blood-brain barrier, there is found P-glycoprotein (P-gp), which is a typical member of the efflux transporters that control drug penetration; and P-gp inhibits the penetration of its substrate drugs into the brain. Thus, in developing a drug, recognition performance as a P-gp substrate can be used as an indicator of brain penetration.
A test for substrate recognition by P-gp was conducted as described in J. Pharmacol. Exp. Ther. (1992) Vol. 263, No. 2, 840-845 and J. Biol. Chem. (1992) Vol. 267, No. 34, 24248-24252. Specifically, LLC-GA5-COL300 cells (i.e., a Human MDR1-expressing system originating from a pig kidney-derived cultured renal epithelial cell line, LLC-PK1) were used after being cultured for 4 days on trans wells, and the medium in each well was replaced by Hank's balanced salt solution (HBSS) immediately before use in the test. After a test compound solution (i.e., a DMSO solution of a test compound, which was further diluted with HBSS and adjusted to a final concentration of 10 μM) was added to the Donor side of the LLC-GA5-COL300 cells, aliquots of HBSS were sampled over time from the Acceptor side to determine the test compound concentration in each collected sample by LC-MS/MS.
The membrane permeability coefficient (×10^−6 cm/sec) was calculated by the accumulated amount of the compound into the Acceptor side for both directions, Apical to Basolateral and Basolateral to Apical. and the ratio of these coefficients (Efflux Ratio) was then used to evaluate substrate recognition by P-gp.

[2] = test system: male Sprague-Dawley rats; assay: Social recognition test (MK-801-treated rats); type: in vivo; conditions: rat; for Ratio (second exploration time/first exploration time): MK-801 0.1 mg/kg i.p.
Experimental: This experiment was performed using male Sprague-Dawley rats according to the reported method (Shimazaki et al., Psychopharmacology, 209, 263-270, 2010). Adult rats (9 weeks old) received intraperitoneal administration of MK-801 (0.1 mg/kg), and were immediately placed in test cages and acclimated for 30 minutes. Thereafter, juvenile rats (4 weeks old) were placed in the same test cages, where juvenile rats and adult rats were left for 5 minutes, during which the time it took for the adult rats to show social behavior (sniffing, grooming, following) to the juvenile rats was measured (first exploration time). Then, the juvenile rats were removed from the test cages and returned to their home cages. After 30 minutes, the same juvenile rats that were used in the first exploration were placed in the test cages, and the time it took for the adult rats to show social behavior (sniffing, grooming, following) to the juvenile rats during a 5-minute period was measured (second exploration time). The social recognition was expressed as the ratio of second exploration time to first exploration time. The test substance (Compound 10) was orally administered one hour before the start of first exploration. The vehicle group was administered a 0.5% methyl cellulose solution.

[3] = biological target: T2, human type 1 glycine transporter (GlyT1) (Homo sapiens, UniProt P48067); assay: Glycine uptake inhibition experiment ([3H]glycine uptake in T98G cells); type: cell-based; conditions: [3H]glycine 250 nM, 15 min, room temperature, read-out: glycine uptake inhibitory activity (IC50 value)
T2 construct: Glioma T98G cells endogenously expressing human type 1 glycine transporter (GlyT1) were used; endogenous in cells; host or cells: T98G human glioma cells
T2 sequence (P48067 1-706): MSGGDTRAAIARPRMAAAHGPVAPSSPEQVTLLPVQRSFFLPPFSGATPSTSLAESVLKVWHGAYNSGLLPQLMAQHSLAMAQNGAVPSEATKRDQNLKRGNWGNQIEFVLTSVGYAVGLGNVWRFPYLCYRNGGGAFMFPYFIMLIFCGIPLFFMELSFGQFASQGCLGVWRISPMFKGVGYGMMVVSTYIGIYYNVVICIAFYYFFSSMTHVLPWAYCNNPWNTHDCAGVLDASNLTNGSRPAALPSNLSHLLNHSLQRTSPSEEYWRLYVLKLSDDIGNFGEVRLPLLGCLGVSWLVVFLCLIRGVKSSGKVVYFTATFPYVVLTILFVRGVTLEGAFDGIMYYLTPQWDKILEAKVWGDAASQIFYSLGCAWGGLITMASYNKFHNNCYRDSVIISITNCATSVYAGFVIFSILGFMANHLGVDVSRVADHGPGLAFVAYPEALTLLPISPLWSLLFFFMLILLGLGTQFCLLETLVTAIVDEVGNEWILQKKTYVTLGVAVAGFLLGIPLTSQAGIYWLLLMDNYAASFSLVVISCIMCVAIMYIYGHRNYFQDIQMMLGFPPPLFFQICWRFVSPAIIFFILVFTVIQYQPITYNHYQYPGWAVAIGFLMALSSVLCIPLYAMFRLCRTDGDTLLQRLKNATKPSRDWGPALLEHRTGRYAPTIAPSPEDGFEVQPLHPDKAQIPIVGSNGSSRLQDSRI
Experimental: A glycine uptake experiment was conducted as described in Neuron, 8, 927-935, 1992. Glioma T98G cells endogenously expressing human type 1 glycine transporter (GlyT1) were used. T98G cells were seeded in a 96-well plate at 2.0×10^4 cells/well and cultured overnight in a CO2 incubator. A test compound was dissolved in a 100% DMSO solution and then dissolved in 10 mM HEPES buffer (pH 7.4) containing 150 mM sodium chloride, 1 mM calcium chloride, 5 mM potassium chloride, 1 mM magnesium chloride, 10 mM glucose and 0.2% bovine serum albumin. After removing the cell culture medium, the cells were pre-treated with the test compound for 10 minutes. Subsequently, the test compound and [^3H]glycine (final concentration: 250 nM) were added to the cells and incubated at room temperature for 15 minutes. After the incubation, the extracellular solution was aspirated with a manifold to remove the excess labeled glycine existing outside the cells, and the cells were then lysed with 0.5 M aqueous sodium hydroxide. The amount of glycine uptake was determined by measuring radioactivity in the cell lysate using a liquid scintillation counter. Glycine uptake in the presence of 10 μM ALX5407 was defined as non-specific uptake, and the value calculated by subtracting this non-specific uptake from the total uptake in the absence of 10 μM ALX5407 was defined as specific uptake. Moreover, an inhibition curve was obtained for each test compound at concentrations of […] to calculate the glycine uptake inhibitory activity (IC50 value) of each test substance.
It should be noted that ALX5407 is a HCl salt of N-[(3R)-3-([1,1′-biphenyl]-4-yloxy)-3-(4-fluorophenyl)propyl]-N-methylglycine.

recognition as a P-gp substrate (Efflux Ratio criteria) [1]: not to be recognized as a P-gp substrate
IC50 [3]: 14.8 nM
Compound: CC(C)N(Cc1ccc(F)c(-c2ccc(OC(F)(F)F)cc2)c1)C(=O)c1cn(C)cn1 [Compound 10, N-{[6-Fluoro-4′-(trifluoromethoxy)biphenyl-3-yl]methyl}-1-methyl-N-(propan-2-yl)-1H-imidazole-4-carboxamide]
Ratio (second exploration time/first exploration time) ([2]; 0.1 mg/kg orally one hour before first exploration, p<0.05): 0.65 ± 0.05 ^p<0.05
Ratio (second exploration time/first exploration time) ([2]; 0.3 mg/kg orally one hour before first exploration, p<0.01): 0.60 ± 0.06 ^p<0.01
effect on cognitive functions (social recognition, in words) ([2]; compared to the vehicle group, oral): enhancing effect on cognitive functions
